Test results taken from the supplement of paper PMC6411743.

What was measured:
[1] = compound: Nc1nc2c(ncn2[C@@H]2O[C@H](COP(=O)(O)OP(=O)(O)OP(=O)(O)O)[C@@H](O)[C@H]2O)c(=O)[nH]1 [guanosine triphosphate]; test: pEC50 of GTP-induced change in protein thermal stability (2D-TPP)
Description: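 2D thermal proteome profiling in Jurkat crude lysate. Lysate was treated 10 min at room temperature with Na-GTP (0, 0.001, 0.01, 0.1, 0.5 mM), heated to 12 temperatures (42-63.9 °C) for 3 min, and soluble protein was quantified by TMT10 LC-MS/MS. pEC50 is the median over replicates of dose-response fits (FDR-controlled hits).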

[2] = compound: Nc1ncnc2c1ncn2[C@@H]1O[C@H](COP(=O)(O)OP(=O)(O)OP(=O)(O)O)[C@@H](O)[C@H]1O [adenosine triphosphate]; test: pEC50 of ATP-induced change in protein thermal stability (2D-TPP)
Summary of the method: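 Each of three independent experiments used Jurkat crude lysate given five concentrations including vehicle (10 min, room temperature), followed by 3 min at one of 12 temperatures from 42 to 63.9 °C and NP40 with benzonase (60 min, 4 °C). TMT LC-MS/MS quantified soluble protein after ultracentrifugation, expressed as fold changes against vehicle at each temperature with median normalisation. For pEC50, dose-response curves were fitted per replicate over adjacent temperature pairs, and hits were called through permutation-based false discovery rate control.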
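For pEC50 of ATP-induced change in protein thermal stability (2D-TPP) in this document: lysate dosed with Na-ATP at 0 0.005 0.05 0.5 and 2 mM.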

Sequence of UniProt P23743 (P23743 whole entry): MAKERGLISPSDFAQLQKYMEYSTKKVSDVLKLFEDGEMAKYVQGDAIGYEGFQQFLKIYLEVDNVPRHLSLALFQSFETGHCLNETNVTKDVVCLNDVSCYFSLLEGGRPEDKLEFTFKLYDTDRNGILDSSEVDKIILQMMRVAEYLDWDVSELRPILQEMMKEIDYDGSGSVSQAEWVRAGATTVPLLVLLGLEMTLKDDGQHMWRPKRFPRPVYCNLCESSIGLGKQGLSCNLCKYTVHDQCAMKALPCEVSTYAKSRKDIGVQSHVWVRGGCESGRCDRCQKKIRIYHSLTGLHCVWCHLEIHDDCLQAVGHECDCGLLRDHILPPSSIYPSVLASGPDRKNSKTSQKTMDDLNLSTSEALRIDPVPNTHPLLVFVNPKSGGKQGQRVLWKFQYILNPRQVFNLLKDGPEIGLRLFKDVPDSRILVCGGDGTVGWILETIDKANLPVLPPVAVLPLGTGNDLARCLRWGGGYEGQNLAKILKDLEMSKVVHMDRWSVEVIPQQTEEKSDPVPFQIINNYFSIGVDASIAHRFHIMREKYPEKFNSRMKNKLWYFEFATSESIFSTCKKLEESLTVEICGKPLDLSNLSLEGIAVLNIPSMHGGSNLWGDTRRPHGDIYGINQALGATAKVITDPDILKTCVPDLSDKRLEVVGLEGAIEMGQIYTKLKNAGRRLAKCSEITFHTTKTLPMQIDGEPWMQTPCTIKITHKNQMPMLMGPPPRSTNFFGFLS
Sequence of UniProt Q7L014 (Q7L014 whole entry): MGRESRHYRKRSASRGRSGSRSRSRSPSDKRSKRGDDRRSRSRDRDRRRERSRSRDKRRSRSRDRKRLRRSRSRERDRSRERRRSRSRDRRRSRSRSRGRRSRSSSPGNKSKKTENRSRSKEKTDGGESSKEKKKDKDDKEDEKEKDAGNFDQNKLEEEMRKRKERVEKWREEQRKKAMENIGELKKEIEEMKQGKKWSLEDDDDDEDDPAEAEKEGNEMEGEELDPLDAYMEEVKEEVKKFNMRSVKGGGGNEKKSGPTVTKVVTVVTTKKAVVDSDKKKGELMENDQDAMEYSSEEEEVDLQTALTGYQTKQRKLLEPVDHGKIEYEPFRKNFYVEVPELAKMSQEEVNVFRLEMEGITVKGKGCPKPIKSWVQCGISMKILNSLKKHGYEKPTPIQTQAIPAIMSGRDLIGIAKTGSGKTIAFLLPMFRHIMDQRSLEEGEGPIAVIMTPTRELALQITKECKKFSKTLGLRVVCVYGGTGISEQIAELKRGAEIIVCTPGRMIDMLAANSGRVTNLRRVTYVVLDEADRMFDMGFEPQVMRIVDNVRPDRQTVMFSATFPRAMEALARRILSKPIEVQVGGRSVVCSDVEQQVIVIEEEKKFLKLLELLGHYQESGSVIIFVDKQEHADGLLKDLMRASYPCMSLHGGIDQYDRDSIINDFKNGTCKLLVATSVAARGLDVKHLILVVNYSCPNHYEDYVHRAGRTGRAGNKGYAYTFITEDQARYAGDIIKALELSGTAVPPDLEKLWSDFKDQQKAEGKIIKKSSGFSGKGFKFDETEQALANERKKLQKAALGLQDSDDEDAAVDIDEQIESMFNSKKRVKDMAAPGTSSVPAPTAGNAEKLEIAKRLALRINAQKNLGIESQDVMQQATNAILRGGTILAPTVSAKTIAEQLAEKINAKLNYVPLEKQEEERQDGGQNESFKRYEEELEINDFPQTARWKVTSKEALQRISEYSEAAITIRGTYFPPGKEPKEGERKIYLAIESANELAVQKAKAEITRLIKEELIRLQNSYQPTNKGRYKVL
Sequence of UniProt Q16566 (Q16566 whole entry): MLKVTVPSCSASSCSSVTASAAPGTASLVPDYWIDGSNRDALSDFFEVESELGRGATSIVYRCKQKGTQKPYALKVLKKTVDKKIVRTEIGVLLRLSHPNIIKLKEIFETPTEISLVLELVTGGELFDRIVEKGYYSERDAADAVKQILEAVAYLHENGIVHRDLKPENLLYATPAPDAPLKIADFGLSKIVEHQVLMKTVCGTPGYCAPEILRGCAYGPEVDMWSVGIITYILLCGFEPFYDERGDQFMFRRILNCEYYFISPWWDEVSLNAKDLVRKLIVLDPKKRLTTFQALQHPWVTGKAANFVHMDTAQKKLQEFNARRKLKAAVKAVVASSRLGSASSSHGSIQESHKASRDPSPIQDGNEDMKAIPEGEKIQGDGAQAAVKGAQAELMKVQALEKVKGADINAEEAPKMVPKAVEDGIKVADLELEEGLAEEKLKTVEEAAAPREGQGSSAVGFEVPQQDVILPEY
Sequence of UniProt Q9H078 (Q9H078 whole entry): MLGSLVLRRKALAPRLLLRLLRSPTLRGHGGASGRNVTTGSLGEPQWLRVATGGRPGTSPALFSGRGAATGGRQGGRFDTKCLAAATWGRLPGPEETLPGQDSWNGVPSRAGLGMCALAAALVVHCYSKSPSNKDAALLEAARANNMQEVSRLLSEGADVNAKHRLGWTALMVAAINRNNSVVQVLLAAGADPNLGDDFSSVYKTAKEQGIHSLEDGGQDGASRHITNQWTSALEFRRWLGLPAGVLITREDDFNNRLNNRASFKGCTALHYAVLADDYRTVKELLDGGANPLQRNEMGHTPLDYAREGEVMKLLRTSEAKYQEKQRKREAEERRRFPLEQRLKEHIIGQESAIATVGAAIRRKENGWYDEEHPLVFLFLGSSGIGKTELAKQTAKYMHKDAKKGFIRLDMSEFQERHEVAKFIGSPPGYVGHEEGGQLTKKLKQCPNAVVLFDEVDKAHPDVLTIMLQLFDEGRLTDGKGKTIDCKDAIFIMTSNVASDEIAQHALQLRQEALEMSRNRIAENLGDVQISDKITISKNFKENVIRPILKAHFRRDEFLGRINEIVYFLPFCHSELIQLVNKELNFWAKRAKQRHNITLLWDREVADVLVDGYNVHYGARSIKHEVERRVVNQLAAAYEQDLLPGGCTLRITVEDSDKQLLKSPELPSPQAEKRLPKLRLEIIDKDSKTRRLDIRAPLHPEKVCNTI
Sequence of UniProt Q9HD20 (Q9HD20 whole entry): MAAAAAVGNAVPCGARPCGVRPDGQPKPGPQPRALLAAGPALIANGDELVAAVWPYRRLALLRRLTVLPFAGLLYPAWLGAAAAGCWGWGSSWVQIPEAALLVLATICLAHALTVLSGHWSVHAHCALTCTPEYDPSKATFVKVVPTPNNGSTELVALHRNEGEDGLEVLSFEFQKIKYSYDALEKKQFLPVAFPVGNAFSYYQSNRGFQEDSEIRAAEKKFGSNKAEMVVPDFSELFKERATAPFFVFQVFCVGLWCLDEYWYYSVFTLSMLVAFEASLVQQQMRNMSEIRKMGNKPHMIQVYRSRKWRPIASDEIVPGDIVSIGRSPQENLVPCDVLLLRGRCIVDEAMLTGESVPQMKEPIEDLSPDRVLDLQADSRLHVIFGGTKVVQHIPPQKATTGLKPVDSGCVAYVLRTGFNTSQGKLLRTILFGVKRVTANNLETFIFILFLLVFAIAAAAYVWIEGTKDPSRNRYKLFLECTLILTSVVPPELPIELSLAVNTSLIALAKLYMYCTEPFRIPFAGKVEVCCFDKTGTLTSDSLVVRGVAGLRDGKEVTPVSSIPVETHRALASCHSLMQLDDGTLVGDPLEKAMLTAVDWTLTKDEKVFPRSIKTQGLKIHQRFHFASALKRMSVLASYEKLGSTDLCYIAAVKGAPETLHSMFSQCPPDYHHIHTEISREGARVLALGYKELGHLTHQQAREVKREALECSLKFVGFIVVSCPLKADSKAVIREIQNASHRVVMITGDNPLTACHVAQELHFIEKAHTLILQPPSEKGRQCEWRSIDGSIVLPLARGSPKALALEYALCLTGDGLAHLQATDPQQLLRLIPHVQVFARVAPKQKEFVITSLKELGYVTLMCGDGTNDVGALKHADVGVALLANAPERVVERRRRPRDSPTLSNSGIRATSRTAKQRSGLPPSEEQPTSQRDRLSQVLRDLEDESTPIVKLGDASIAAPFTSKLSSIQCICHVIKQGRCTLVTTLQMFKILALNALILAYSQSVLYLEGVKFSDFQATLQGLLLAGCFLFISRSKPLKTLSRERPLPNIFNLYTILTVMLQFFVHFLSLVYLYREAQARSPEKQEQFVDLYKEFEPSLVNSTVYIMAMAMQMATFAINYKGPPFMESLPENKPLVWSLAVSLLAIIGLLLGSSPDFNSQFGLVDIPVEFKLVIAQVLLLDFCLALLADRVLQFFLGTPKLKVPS
Sequence of UniProt Q9Y276 (Q9Y276 whole entry): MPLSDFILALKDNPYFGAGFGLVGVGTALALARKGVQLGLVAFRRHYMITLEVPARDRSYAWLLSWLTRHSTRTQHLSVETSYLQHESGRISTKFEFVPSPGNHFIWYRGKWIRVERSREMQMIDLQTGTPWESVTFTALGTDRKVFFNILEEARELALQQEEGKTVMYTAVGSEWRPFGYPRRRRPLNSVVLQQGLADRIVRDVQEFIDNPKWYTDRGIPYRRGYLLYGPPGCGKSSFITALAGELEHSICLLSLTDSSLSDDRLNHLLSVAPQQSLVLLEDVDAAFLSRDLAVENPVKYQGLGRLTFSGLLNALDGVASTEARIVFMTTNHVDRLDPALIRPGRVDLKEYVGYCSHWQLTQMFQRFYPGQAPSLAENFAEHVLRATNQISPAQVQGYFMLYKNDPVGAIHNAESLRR
Sequence of UniProt O95861 (O95861 whole entry): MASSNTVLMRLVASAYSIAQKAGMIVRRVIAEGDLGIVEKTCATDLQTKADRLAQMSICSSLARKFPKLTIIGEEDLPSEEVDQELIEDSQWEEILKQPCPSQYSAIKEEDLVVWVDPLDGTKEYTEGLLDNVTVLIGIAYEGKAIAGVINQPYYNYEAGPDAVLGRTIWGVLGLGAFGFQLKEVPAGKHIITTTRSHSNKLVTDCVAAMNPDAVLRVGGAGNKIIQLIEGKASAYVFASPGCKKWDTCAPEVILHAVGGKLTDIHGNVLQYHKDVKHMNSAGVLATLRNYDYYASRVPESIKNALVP
Sequence of UniProt P84103 (P84103 whole entry): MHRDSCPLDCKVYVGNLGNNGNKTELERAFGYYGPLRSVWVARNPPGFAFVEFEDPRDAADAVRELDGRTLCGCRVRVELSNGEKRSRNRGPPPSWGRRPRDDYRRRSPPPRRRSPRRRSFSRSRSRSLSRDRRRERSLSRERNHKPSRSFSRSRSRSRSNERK

pEC50 [1] | pEC50 [2] | Target
3.82 | 3.49 | ABCB7 (effect direction: stabilized) (UniProt O75027)
3.94 | 3.41 | ABCC4 (effect direction: stabilized) (UniProt O15439)
3.96 | 4.2 | ABCF1 (effect direction: stabilized) (UniProt Q8NE71)
3.9 | 3.91 | ACSL3 (effect direction: stabilized) (UniProt O95573)
< 3.3 | 3.42 | ACSS1 (effect direction: stabilized) (UniProt Q9NUB1)
3.93 | 4.25 | ACTR3 (effect direction: stabilized) (UniProt P61158)
3.89 | 4.18 | AFG3L2 (effect direction: stabilized) (UniProt Q9Y4W6)
3.46 | 3.22 | AK3 (effect direction: stabilized) (UniProt Q9UIJ7)
3.75 | 2.89 | ANP32B (effect direction: stabilized) (UniProt Q92688)
4.15 | 3.3 | ARL2 (effect direction: stabilized) (UniProt P36404)
3.83 | 4.25 | ARPC1B (effect direction: stabilized) (UniProt O15143)
3.83 | 4.06 | ARPC2 (effect direction: stabilized) (UniProt O15144)
3.44 | 3.19 | ATL3 (effect direction: stabilized) (UniProt Q6DD88)
4.31 | 3.33 | ATP2A2 (effect direction: stabilized) (UniProt P16615)
4.37 | 4.22 | ATP13A1 (effect direction: stabilized) (UniProt Q9HD20)
3.82 | 3.27 | AUP1 (effect direction: stabilized) (UniProt Q9Y679)
< 3.3 | 4.07 | BCS1L (effect direction: stabilized) (UniProt Q9Y276)
3.59 | < 2.7 | BPNT1 (effect direction: destabilized) (UniProt O95861)
3.77 | 3.88 | CAMK4 (effect direction: stabilized) (UniProt Q16566)
3.46 | 3.47 | CCDC117 (effect direction: stabilized) (UniProt Q8IWD4)
3.56 | 4.34 | CCT2 (effect direction: stabilized) (UniProt P78371)
3.62 | 4.53 | CCT3 (effect direction: stabilized) (UniProt P49368)
3.65 | 3.07 | CCT4 (effect direction: stabilized) (UniProt P50991)
4.19 | 4.02 | CLPB (effect direction: stabilized) (UniProt Q9H078)
3.91 | 3.58 | CNP (effect direction: stabilized) (UniProt P09543)
4.3 | 3.56 | CSK (effect direction: stabilized) (UniProt P41240)
4.2 | 3.84 | CSNK2B (effect direction: stabilized) (UniProt P67870)

pEC50 [1] | pEC50 [2] | Target
3.9 | 3.92 | DARS (effect direction: stabilized) (UniProt P14868)
3.79 | 3.27 | DBN1 (effect direction: destabilized) (UniProt Q16643)
3.73 | 3.19 | DCK (effect direction: stabilized) (UniProt P27707)
3.86 | 3.56 | DDX46 (effect direction: stabilized) (UniProt Q7L014)
3.72 | 3.3 | DGKA (effect direction: stabilized) (UniProt P23743)
3.93 | 3.9 | DHX15 (effect direction: stabilized) (UniProt O43143)
3.83 | 4.09 | DHX38 (effect direction: stabilized) (UniProt Q92620)
3.83 | 3.38 | DNM1L (effect direction: stabilized) (UniProt O00429)
4.32 | 3.7 | DRG2 (effect direction: stabilized) (UniProt P55039)
4.06 | 4.17 | DTYMK (effect direction: stabilized) (UniProt P23919)
3.6 | 3.71 | DYNC1LI1 (effect direction: stabilized) (UniProt Q9Y6G9)
4.16 | 3.69 | DYNC1LI2 (effect direction: stabilized) (UniProt O43237)
4.26 | 4.11 | EEF1A1 (effect direction: stabilized) (UniProt P68104)
3.94 | 3.58 | EEF2 (effect direction: stabilized) (UniProt P13639)
3.34 | – | SAFB2 (effect direction: destabilized) (UniProt Q14151)
4.81 | – | SAFB (effect direction: destabilized) (UniProt Q15424)
3.87 | – | SAR1A (effect direction: stabilized) (UniProt Q9NR31)
4.16 | – | SAR1B (effect direction: stabilized) (UniProt Q9Y6B6)
3.98 | – | SRP54 (effect direction: stabilized) (UniProt P61011)
4.12 | – | SRP68 (effect direction: stabilized) (UniProt Q9UHB9)
4.01 | – | SRP72 (effect direction: stabilized) (UniProt O76094)
3.74 | – | TAP1 (effect direction: stabilized) (UniProt Q03518)
3.4 | – | TUBA1A (effect direction: stabilized) (UniProt Q71U36)
4.31 | – | TUBE1 (effect direction: stabilized) (UniProt Q9UJT0)
4.41 | – | TUFM (effect direction: stabilized) (UniProt P49411)
< 3.3 | – | UCK1 (effect direction: stabilized) (UniProt Q9HA47)
4.3 | – | UQCRC2 (effect direction: stabilized) (UniProt P22695)

pEC50 [1] | pEC50 [2] | Target
3.98 | – | UniProt A3KMH1 (effect direction: stabilized)
3.86 | – | UniProt O00506 (effect direction: stabilized)
4.27 | – | UniProt O14966 (effect direction: stabilized)
4.16 | – | UniProt O75582 (effect direction: stabilized)
3.79 | – | UniProt O95747 (effect direction: stabilized)
4.43 | – | UniProt P08134 (effect direction: stabilized)
3.86 | – | UniProt P48730 (effect direction: stabilized)
3.9 | – | UniProt P51149 (effect direction: stabilized)
3.59 | – | UniProt P60953 (effect direction: stabilized)
4.67 | – | UniProt P61020 (effect direction: stabilized)
4.18 | – | UniProt P61221 (effect direction: stabilized)
3.98 | – | UniProt P62330 (effect direction: stabilized)
3.69 | – | UniProt P62805 (effect direction: stabilized)
4.38 | – | UniProt P62834 (effect direction: stabilized)
3.84 | – | UniProt P63000 (effect direction: stabilized)
3.93 | – | UniProt P78527 (effect direction: stabilized)
4.13 | – | UniProt P84085 (effect direction: stabilized)
3.83 | – | UniProt P84095 (effect direction: stabilized)
3.94 | – | UniProt P84103 (effect direction: stabilized)
4.22 | – | UniProt Q5JTY5 (effect direction: stabilized)
3.96 | – | UniProt Q9BSD7 (effect direction: stabilized)
3.66 | – | UniProt Q9NZ01 (effect direction: stabilized)
3.83 | – | UniProt Q9Y3L5 (effect direction: stabilized)
4.09 | – | UniProt Q86Y56 (effect direction: stabilized)
3.79 | – | UniProt Q08170 (effect direction: stabilized)
3.6 | – | UniProt Q13243 (effect direction: stabilized)
